# From ChEMBL document CHEMBL1201862, “PubChem BioAssay data set” (2004)
# Where a name gives a salt, the structure may show the parent alone. Calls of active or inactive are those of the source.
# Legend:
# [1] = biological target: T1, Adenosylmethionine-8-amino-7-oxononanoate aminotransferase (Mycobacterium tuberculosis, UniProt P9WQ81); experiment: Mycobacterium tuberculosis BioA enzyme inhibitor Measured in Biochemical System Using Plate Reader - 2163-02_Inhibitor_Dose_CherryPick_Activity.; format: functional, Mycobacterium tuberculosis UT205
# T1 sequence (P9WQ81 whole entry): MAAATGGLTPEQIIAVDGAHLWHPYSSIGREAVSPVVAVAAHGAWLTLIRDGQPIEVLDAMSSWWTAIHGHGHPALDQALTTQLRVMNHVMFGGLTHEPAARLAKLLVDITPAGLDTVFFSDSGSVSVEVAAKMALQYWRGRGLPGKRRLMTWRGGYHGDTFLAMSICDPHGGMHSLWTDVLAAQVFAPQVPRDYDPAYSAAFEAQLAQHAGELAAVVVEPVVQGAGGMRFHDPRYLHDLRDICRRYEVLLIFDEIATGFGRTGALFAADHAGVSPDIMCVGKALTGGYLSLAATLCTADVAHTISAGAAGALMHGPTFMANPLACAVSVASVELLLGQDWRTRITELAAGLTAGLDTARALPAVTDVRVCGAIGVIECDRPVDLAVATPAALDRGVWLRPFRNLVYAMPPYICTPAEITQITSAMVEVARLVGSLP
# [2] = biological target: Prothrombin (Bos taurus, UniProt P00735); experiment: thrombin inhibition, dose response, biochemical, fluorescence polarization, uHTS hits (AID 602369); format: functional
# [3] = biological target: T2, Small ubiquitin-related modifier 1 (Homo sapiens, UniProt P63165); experiment: inhibitors of SUMO1 partner interactions, dose response, biochemical, FRET (AID 624383); format: functional; conditions: read-out: IC50_Mean
# [4] = biological target: 26S proteasome non-ATPase regulatory subunit 14 (Homo sapiens, UniProt O00487); experiment: inhibition of proteasome subunit RPN11 – biochemical, fluorescence polarization, uHTS hits, confirmation (AID 602368); format: functional
# [5] = biological target: 72 kDa type IV collagenase (Homo sapiens, UniProt P08253); experiment: Dose Response validation of uHTS RPN11 inhibitor hits using a MMP-2 Fluorescence assay.; format: functional
# [6] = biological target: T2, Small ubiquitin-related modifier 1; experiment: inhibitors of SUMO1 peptide binding, dose response, biochemical, fluorescence polarization, uHTS hits (AID 624382); format: functional; conditions: read-out: IC50_Mean
# [7] = biological target: T3, DNA repair protein RAD52 homolog (Homo sapiens, UniProt P43351); format: functional, biochemical
# T3 sequence (P43351 whole entry): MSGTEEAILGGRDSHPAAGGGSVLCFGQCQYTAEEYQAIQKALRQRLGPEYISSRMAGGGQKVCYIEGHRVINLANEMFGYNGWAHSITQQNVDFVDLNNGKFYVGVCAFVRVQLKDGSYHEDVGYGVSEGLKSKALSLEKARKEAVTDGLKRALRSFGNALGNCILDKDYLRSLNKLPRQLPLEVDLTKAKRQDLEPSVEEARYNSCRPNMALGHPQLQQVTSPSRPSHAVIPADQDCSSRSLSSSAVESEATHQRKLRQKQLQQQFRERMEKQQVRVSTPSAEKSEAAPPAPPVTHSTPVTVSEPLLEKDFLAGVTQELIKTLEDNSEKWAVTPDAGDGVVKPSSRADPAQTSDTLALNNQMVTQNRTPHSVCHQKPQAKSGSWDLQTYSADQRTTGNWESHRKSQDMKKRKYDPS
# [8] = biological target: DNA dC->dU-editing enzyme APOBEC-3A (Homo sapiens, UniProt P31941); experiment: APOBEC3A DNA deaminase inhibitors, dose response, biochemical (AID 504722); format: functional
# [9] = THP-1 cell cytotoxicity, dose response, cytotoxicity control for non-replicating M. tuberculosis project (AID 489025); format: functional
# [10] = biological target: Heat shock protein HSP 90-alpha (Homo sapiens, UniProt P07900); format: functional, organism-based
# [11] = biological target: DNA dC->dU-editing enzyme APOBEC-3G (Homo sapiens, UniProt Q9HC16); experiment: Dose Response confirmation of small molecule APOBEC3G DNA Deaminase Inhibitors via a fluorescence-based single-stranded DNA deaminase assay. [Related pubchem assays (depositor defined):AID493012, AID493028]; format: functional
# [12] = Luminescence Cell-Based Dose Retest to Confirm Inhibitors of Cancer Stem Cells. [Related pubchem assays (depositor defined):AID2717, AID2721]; format: functional; conditions: Homo sapiens
# [13] = biological target: T4, Trace amine-associated receptor 1 (Homo sapiens, UniProt Q96RJ0); experiment: Fluorescence-based cell-based high throughput dose response assay to identify agonists of the human trace amine associated receptor 1 (TAAR1).; format: functional
# T4 sequence (Q96RJ0 whole entry): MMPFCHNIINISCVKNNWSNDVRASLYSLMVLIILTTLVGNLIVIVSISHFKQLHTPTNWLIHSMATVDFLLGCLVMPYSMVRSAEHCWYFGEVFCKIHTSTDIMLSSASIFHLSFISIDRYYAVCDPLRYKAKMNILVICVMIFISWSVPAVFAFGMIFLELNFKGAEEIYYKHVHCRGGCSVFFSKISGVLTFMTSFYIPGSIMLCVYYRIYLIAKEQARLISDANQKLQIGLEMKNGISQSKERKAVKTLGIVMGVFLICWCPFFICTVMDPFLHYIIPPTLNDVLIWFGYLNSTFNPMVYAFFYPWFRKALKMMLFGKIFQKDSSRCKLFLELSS
# [14] = cells; format: functional, cell-based
# [15] = biological target: T4, Trace amine-associated receptor 1; experiment: Counterscreen for agonists of the human trace amine associated receptor 1 (hTAAR1): Fluorescence-based cell-based high throughput dose response assay to identify hTAAR1 agonist that also desensitize TAAR1 receptor response.; format: functional
# [16] = cells; format: functional, cell-based; remark: listed apart in the source
# [17] = biological target: T5, Corticotropin-releasing factor receptor 2/Corticotropin-releasing factor-binding protein (Homo sapiens, UniProt P24387+Q13324); experiment: activators of CRF receptor 2 with binding protein – uHTS hits, confirmation (AID 602473); format: functional; conditions: read-out: EC50_Mean
# T5 sequence (Q13324 whole entry): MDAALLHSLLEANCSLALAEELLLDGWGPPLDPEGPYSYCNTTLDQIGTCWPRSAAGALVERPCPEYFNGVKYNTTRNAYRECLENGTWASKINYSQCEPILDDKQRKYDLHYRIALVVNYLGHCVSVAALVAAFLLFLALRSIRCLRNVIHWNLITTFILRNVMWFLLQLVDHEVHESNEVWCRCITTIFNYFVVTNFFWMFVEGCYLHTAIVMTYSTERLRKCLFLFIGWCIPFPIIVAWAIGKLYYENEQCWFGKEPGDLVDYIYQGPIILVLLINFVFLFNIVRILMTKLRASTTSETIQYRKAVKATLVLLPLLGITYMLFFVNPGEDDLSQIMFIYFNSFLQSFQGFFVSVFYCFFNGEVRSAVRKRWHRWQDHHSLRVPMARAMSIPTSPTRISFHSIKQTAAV
# T5 sequence (P24387 whole entry): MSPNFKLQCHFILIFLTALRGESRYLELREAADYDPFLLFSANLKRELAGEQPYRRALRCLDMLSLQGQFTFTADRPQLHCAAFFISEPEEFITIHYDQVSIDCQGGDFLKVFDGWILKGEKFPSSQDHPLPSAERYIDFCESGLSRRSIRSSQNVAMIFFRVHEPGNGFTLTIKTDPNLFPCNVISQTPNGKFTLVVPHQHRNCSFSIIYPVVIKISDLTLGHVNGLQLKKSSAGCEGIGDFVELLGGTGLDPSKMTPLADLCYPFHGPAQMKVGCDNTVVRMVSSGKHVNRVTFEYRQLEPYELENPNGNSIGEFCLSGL
# [18] = biological target: T6, Streptokinase A (Streptococcus pyogenes serotype M1, UniProt P10520); experiment: S. pyogenes streptokinase expression inhibitors, potency, dose response, plasminogen activation absorbance, OD405 (AID 1914); format: functional, Streptococcus pyogenes M1 GAS;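 further: secreted streptokinase activity via plasminogen activation per viability signal from cell pellet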
# T6 sequence (P10520 whole entry): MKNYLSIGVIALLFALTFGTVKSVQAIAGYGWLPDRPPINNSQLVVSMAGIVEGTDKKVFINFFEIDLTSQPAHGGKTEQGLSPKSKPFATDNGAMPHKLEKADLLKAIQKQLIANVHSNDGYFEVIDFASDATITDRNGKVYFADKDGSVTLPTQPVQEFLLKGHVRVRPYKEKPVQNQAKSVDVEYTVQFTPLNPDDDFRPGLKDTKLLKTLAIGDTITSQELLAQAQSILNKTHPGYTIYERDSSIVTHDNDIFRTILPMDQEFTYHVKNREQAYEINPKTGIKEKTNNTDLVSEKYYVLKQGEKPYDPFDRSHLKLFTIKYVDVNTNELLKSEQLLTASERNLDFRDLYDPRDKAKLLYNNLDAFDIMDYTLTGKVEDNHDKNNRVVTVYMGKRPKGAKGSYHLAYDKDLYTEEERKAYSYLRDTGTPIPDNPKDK
# [19] = biological target: T5, Corticotropin-releasing factor receptor 2/Corticotropin-releasing factor-binding protein; experiment: Dose Response confirmation of uHTS hits for small molecule antagonists of the CRF-binding protein and CRF-R2 receptor complex.; format: functional; conditions: read-out: IC50_Mean
# [20] = test system: Streptococcus; experiment: Group A Streptococcus viability loss, dose response, counter-screen for streptokinase expression inhibitor project, luminescence, BacTiterGlo (AID 1915); format: functional, organism-based;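 further: potency for reduction of bacterial viability or growth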
# [21] = CRF-BP/CRF-R2 complex antagonists, dose response, cell-based, uHTS hits, 384-well (AID 651639); format: functional, Homo sapiens; conditions: read-out: IC50_Mean
# [22] = test system: Streptococcus sp. 'group A'; experiment: growth inhibition of control SK(-) GAS strain, dose response, counter-screen for streptokinase expression inhibitor project, luminescence, kanamycin, BacTiterGlo, confirmation (AID 1900); format: functional, organism-based
# [23] = test system: H9c2; experiment: cells; format: functional, cell-based; conditions: Rattus norvegicus, H9c2, Myocardium;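 further: confirmatory concentration-response retest of ultra-high-throughput screening hits for modulation of myocardial damage; cell death induced by hydrogen peroxide oxidative stress; compound pretreatment for 60 min then peroxide exposure for 2 h; potency is for protecting the cells against peroxide damage rather than for killing them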
# [24] = biological target: T7, Fructose-bisphosphate aldolase (Mycobacterium tuberculosis, UniProt P9WQA3); experiment: Fluorescence-based biochemical high throughput dose response assay for inhibitors of the fructose-bisphosphate aldolase (FBA) of M. tuberculosis.; format: functional
# T7 sequence (P9WQA3 whole entry): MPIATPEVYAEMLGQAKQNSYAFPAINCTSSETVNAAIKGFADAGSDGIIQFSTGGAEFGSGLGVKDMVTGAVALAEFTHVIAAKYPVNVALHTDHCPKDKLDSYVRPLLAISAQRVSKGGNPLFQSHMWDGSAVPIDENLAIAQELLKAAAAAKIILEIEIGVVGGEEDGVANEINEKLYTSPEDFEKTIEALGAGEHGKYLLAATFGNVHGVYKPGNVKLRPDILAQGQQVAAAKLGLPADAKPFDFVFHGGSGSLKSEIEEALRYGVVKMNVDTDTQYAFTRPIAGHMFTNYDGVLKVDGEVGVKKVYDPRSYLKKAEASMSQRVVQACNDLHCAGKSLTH
# T2 sequence (P63165 whole entry): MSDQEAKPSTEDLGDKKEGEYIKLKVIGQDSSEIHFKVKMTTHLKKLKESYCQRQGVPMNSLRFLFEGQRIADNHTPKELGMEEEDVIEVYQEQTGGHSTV
# DNA dC->dU-editing enzyme APOBEC-3G, sequence (Q9HC16 whole entry): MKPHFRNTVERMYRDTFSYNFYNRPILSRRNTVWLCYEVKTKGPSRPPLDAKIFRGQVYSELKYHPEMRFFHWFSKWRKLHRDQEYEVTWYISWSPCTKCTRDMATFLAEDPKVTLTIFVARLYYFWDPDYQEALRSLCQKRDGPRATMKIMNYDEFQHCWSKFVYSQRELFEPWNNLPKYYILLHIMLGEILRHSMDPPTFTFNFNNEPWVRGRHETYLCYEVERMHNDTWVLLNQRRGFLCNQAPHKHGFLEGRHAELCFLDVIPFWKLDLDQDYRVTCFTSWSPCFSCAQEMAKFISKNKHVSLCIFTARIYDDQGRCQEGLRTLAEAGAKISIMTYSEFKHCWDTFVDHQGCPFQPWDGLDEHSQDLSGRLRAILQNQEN
# 26S proteasome non-ATPase regulatory subunit 14, sequence (O00487 whole entry): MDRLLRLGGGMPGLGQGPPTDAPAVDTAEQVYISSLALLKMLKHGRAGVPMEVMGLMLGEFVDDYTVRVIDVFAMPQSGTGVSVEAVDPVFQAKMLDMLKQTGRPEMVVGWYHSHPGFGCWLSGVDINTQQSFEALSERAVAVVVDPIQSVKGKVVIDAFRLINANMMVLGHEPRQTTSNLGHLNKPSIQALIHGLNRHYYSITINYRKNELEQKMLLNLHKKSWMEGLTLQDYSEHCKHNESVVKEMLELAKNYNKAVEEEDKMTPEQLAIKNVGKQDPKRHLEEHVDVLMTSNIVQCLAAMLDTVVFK
# DNA dC->dU-editing enzyme APOBEC-3A, sequence (P31941 whole entry): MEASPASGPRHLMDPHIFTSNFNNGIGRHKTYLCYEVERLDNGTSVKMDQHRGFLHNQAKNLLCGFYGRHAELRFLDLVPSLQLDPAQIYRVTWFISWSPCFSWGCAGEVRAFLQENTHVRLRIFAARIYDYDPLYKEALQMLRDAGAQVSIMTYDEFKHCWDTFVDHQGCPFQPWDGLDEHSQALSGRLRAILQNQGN
# 72 kDa type IV collagenase, sequence (P08253 whole entry): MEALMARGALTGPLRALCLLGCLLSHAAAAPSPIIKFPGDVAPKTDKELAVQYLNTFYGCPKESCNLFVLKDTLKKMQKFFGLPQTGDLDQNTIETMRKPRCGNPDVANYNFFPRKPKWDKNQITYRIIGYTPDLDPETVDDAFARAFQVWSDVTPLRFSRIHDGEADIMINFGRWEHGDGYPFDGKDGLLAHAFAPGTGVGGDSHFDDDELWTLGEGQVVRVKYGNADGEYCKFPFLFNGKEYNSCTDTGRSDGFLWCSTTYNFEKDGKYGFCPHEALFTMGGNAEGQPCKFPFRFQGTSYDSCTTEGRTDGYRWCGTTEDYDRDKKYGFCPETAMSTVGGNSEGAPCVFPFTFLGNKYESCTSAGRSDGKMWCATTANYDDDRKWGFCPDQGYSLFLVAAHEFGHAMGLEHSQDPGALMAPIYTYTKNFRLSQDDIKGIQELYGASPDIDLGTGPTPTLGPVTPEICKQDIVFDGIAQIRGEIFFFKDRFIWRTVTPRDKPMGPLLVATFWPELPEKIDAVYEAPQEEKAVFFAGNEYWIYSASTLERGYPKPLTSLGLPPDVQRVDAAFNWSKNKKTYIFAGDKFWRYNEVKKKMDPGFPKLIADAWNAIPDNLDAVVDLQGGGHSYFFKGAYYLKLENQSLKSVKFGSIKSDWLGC
smiles,measurement,setting,value
COc1ccc(C2c3c(oc4ccc(Cl)cc4c3=O)C(=O)N2CCN2CCOCC2)cc1 (configuration not stated),AC50,[1],3.7 µM (active)
CC(=O)c1ccc(NC(=O)CN2CCN(c3ccccc3)CC2)cc1,AC50,[1],8.6 µM (active)
O=C(c1ccc(S(=O)(=O)Nc2ccccc2F)cc1)N1CCN(c2ccccc2O)CC1,AC50,[1],3.62 µM (active)
CCC(CO)Oc1cc(NC(=O)c2ccc(N)cc2)c2ncn(C(C)C)c2c1 (configuration not stated),IC50,[2],> 100 µM (inactive)
same,IC50,[3],9.23 µM (active)
same,IC50,[4],19.6 µM (active)
same,IC50,[5],64.6 µM (active)
same,IC50,[6],> 66.6 µM (inactive)
CCn1c(C)c(C(C)=O)c(NCc2ccccc2)nc1=S,AC50,[7],11 µM (active)
O=C(Nc1ccc(Cl)cc1Cl)c1cccc(N2C(=O)C=CC2=O)c1,IC50,[8],> 100 µM (inactive)
same,CC50,[9],> 40 µM (active)
same,AC50,[10],0.295 µM (active)
same,IC50,[11],13.8 µM (active)
CN(CC(=O)Nc1cccc(F)c1)C(=O)c1cn(-c2ccccc2)nc1-c1ccc(Cl)cc1,AC50,[10],8.31 µM (active)
same,AC50,[12],2.93 µM (active)
O=S(=O)(NCCc1ccccc1)c1ccc(F)cc1,EC50,[13],1.37 µM (active)
same,EC50,[14],> 29.9 µM (inactive)
same,IC50,[15],4.22 µM (active)
same,IC50,[16],> 29.9 µM (inactive)
CCc1ccc(N2CN(CCc3ccccc3)CN=C2S)cc1,EC50,[13],2.26 µM (active)
same,EC50,[14],> 29.9 µM (inactive)
same,IC50,[15],9.18 µM (active)
same,IC50,[16],> 29.9 µM (inactive)
Cc1ccccc1-c1cc2nc(-c3ccc([N+](=O)[O-])cc3)cc(O)n2n1,EC50,[17],> 53 µM (inactive)
same,EC50,[18],> 150 µM (not active)
same,IC50,[19],4.74 µM (active)
same,EC50,[20],60.1 µM (active)
same,IC50,[21],3.21 µM (active)
same,EC50,[22],9.23 µM (active)
CC1=CC(C)(C)N2C(=O)C3(C(C#N)=C(N)Oc4cc(O)ccc43)c3c(C)c(C)cc1c32 (configuration not stated),EC50,[17],> 53 µM (inactive)
same,IC50,[19],29.4 µM (active)
same,IC50,[21],16.5 µM (active)
CC1(C)CC(=O)C2=C(C1)N(CCN1CCOCC1)C1=C(C(=O)CC(C)(C)C1)C2c1ccc(Cl)cc1,IC50,[23],> 79 µM (inactive)
same,IC50,[24],2.33 µM (active)
Cc1nn(S(=O)(=O)c2cccs2)c(C)c1Sc1ccc([N+](=O)[O-])cc1,EC50,[17],> 53 µM (inactive)
same,IC50,[19],< 0.368 µM (active)
same,IC50,[21],12.8 µM (active)
CNC(=O)C[C@H]1CC[C@@H]2[C@H](COC[C@@H](O)CN2C(=O)Nc2ccc3c(c2)OCO3)O1,AC50,[1],10.4 µM (active)
CC1(C)Oc2cc3oc(C(=O)O)cc(=O)c3cc2-c2ccccc21,IC50,[24],> 0.37 µM (active)
O=C(Cc1nnc(O)nc1O)N/N=C/c1ccccc1,EC50,[13],> 29.9 µM (inactive)
same,EC50,[14],> 29.9 µM (inactive)
same,IC50,[15],> 29.9 µM (inactive)
same,IC50,[16],> 29.9 µM (inactive)
c1ccc2c(c1)CCCC2C1=NCCN1 (configuration not stated) [TETRAHYDROZOLINE HYDROCHLORIDE],EC50,[13],0.154 µM (active)
same,EC50,[14],> 29.9 µM (inactive)
same,IC50,[15],0.157 µM (active)
same,IC50,[16],> 29.9 µM (inactive)
